Experimental data: US20130317068A1, “SUBSTITUTED 1,2,4-TRIAZOLE COMPOUNDS AS A SEED TREATMENT TO CONTROL PESTS” (Dow Agrosciences LLC, priority 2012, published 2013)

Legend:
[1] = tested on: Aphis gossypii (cotton aphid); test: Insecticidal activity on cotton aphid, solutions applied to cabbage leaf surface then infested; format: in vivo; details: for mortality at 50 ppm / mortality at 200 ppm: Aphis gossypii; for mortality at 200 ppm: Rate 200 PPM solution
Protocol: (§1) Different substituted 1,2,4-triazole compounds of the present disclosure were tested for insecticidal activity on Aphis gossypii (cotton aphid) and Myzus persicae (green peach aphid). The different substituted 1,2,4-triazole compounds were formulated as either 200 PPM solutions or 50 PPM solutions. The 200 PPM solutions or 50 PPM solutions of the different substituted 1,2,4-triazole compounds were applied to a cabbage leaf surface and the resulting samples were subjected to an infestation of Aphis gossypii and Myzus persicae.
(§2) In Table 1, “ND” means mortality data was not determined at this rate.

[2] = tested on: Myzus persicae (green peach aphid); test: Insecticidal activity on green peach aphid, solutions applied to cabbage leaf surface then infested; format: in vivo; details: for mortality at 50 ppm: Rate 50 PPM solution; for mortality at 200 ppm: Rate 200 PPM solution
Protocol: as §1, §2

SMILES | mortality at 50 ppm ([1]; Rate 50 PPM solution) [%] | mortality at 50 ppm [2] [%] | mortality at 200 ppm [2] [%] | mortality at 200 ppm [1] [%] | Average % mortality, Cotton Aphid ([1]; Rate 50 PPM solution) [%]
Cn1nc(-c2c(F)cccc2F)nc1C1(C)CC1(Cl)Cl (stereo not drawn) [drawing 11] | 90 | 13 | 81 |  | 
Cc1cc(-c2ccc(OC(F)(F)C(F)Cl)cc2)sc1-c1nc(-c2c(F)cccc2Cl)nn1C (stereo not drawn) | 66 | 75 |  |  | 
Cn1nc(-c2c(F)cccc2Cl)nc1-c1sc(Cl)c(Cl)c1Cl | 32 | 81 |  | 99 | 
Cc1c(Br)csc1-c1nc(-c2c(F)cccc2Cl)nn1C | 96 | 87 | 63 | 100 | 
Cn1nc(-c2c(F)cccc2F)nc1C1(C)CC1(Cl)Cl (stereo not drawn) [drawing 12] |  |  |  |  | 95
Cc1c(-c2nc(-c3c(F)cccc3Cl)nn2C)csc1-c1ccc(OC(F)(F)C(F)Cl)cc1 (stereo not drawn) | 84 | 73 |  |  | 
Cn1nc(-c2c(Cl)cncc2Cl)nc1-c1ccc(C(F)(F)F)cc1 | 88 | 79 | 87 |  | 
